Literature values in article PMC2192333 (The Journal of Experimental Medicine, 1996).
Blank lines part the entries; values can stand above or below the substance they belong to.

Columns and labels:
C3bi = settings: mutation in CD11b

binding to C3bi (C3bi): abohshed binding to C3bi
Substance: Asp-140GlySer to AlaGlyAla: mutation of the closely related integrin CD11b

binding to ICAM-3 (ICAM-3): high affinity
Substance: CD11d/CD18: recently described fourth member of the CD18 integrins

binding of murine LFA-1 to human ICAM-1 (human ICAM-1): does not bind human ICAM-1
Substance: murine LFA-1: murine leukocyte integrin LFA-1
